Counter-ions that a name gives are not always drawn. Like-named read-outs stand apart in the source and are kept apart here. Non-standard residues stand in square brackets, D forms with d. Residues, ends and D or L forms follow the SMILES beside them. *: point of attachment. Sta = CC(C)C[C@H](N)[C@@H](O)CC(=O)O; Isovaleryl = CC(C)CC(=O)*
Tests used:
human NTCP [1] = molecular target: T1, human NTCP (Homo sapiens, UniProt Q14973); test: Screening fluorescent competitive Myrcludex B-FITC binding assay (96-well, 10 µM drug)
T1 sequence (Q14973 1-349): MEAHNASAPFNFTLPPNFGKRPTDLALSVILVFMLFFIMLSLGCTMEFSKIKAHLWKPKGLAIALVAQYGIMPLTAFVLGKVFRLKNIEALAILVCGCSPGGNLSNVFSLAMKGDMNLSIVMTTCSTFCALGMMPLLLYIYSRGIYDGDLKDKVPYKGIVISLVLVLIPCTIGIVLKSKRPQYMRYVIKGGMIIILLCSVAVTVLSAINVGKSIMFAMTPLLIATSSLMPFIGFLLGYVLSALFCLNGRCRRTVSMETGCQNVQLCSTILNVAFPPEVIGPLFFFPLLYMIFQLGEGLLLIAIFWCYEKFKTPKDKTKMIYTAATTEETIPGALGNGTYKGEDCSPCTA

human NTCP [2] = molecular target: T1, human NTCP; test: Screening taurocholate uptake assay (96-well, [14C]taurocholate, 10 µM drug)
[3] = Prestwick library screen, 10 µM drug, B-score of Myrcludex B-FITC binding
[4] = Prestwick library screen, 10 µM drug, B-score of taurocholate uptake
[5] = combined ranking from functional and binding assay B-scores
[6] = screen, 10 µM drug, Myrcludex B-FITC binding
[7] = combined ranking from functional and binding screening assays
[8] = screen, 10 µM drug, taurocholate uptake
[9] = Prestwick library screen, Myrcludex B-FITC binding, 10 µM drug
[10] = Prestwick library screen, taurocholate uptake, 10 µM drug
[11] = ranking score beside the functional and binding assay B-scores of the screen

| SMILES | B-score binding assay (human NTCP [1]; [6]) | Ranking score (human NTCP [2]; [7]) | B-score functional assay (human NTCP [2]; [8]) | B-score binding assay (human NTCP [1]; [9]) | B-score functional assay (human NTCP [2]; [10]) | Ranking score (human NTCP [2]; [11]) | also measured |
| --- | --- | --- | --- | --- | --- | --- | --- |
| CN1CCc2c(c3ccccc3n2Cc2ccccc2)C1.O=S(=O)(O)c1cccc2c(S(=O)(=O)O)cccc12 [Mebhydroline 1,5-naphtalenedisulfonate] | – | – | – | – | – | – | B-score binding assay (human NTCP [1]; [3]): 1.889; B-score functional assay (human NTCP [2]; [4]): 0.022; Ranking score (human NTCP [2]; [5]): 893.031 |
| CC(=O)OCC1=C(C(=O)O)N2C(=O)[C@@H](N)[C@H]2SC1 [Cephalosporanic acid, 7-amino] | – | – | – | – | – | – | B-score binding assay (human NTCP [1]; [3]): 0.15; B-score functional assay (human NTCP [2]; [4]): 0.531; Ranking score (human NTCP [2]; [5]): 845.501 |
| CC[C@H]1OC(=O)C[C@@H](O)[C@H](C)[C@@H](O[C@@H]2O[C@H](C)[C@@H](O[C@H]3C[C@@](C)(O)[C@@H](O)[C@H](C)O3)[C@H](N(C)C)[C@H]2O)[C@@H](CC=O)C[C@@H](C)C(=O)/C=C/C(C)=C/[C@@H]1CO[C@@H]1O[C@H](C)[C@@H](O)[C@@H](OC)[C@H]1OC [Tylosin] | – | – | – | – | – | – | B-score binding assay (human NTCP [1]; [3]): 2.256; B-score functional assay (human NTCP [2]; [4]): 0.165; Ranking score (human NTCP [2]; [5]): 978.04 |
| CC(=O)c1ccc2c(c1)N(CCCN(C)C)c1ccccc1S2.O=C(O)/C=C\C(=O)O [Acetopromazine maleate salt] | -2.054 | 331.723 | 0.92 | – | – | – | – |
| Cc1ccc(O)c([C@H](CCN(C(C)C)C(C)C)c2ccccc2)c1 [Tolterodine tartrate] | – | – | – | 0.032 | 0.018 | 673.446 | – |
| NS(=O)(=O)c1cc2c(cc1Cl)N=CNS2(=O)=O [Chlorothiazide] | – | – | – | – | – | – | B-score binding assay (human NTCP [1]; [3]): 0.263; B-score functional assay (human NTCP [2]; [4]): 1.41; Ranking score (human NTCP [2]; [5]): 967.179 |
| COc1c2occc2c(OC)c2c(=O)cc(C)oc12 [Khellin] | -0.883 | 450.763 | 0.111 | – | – | – | – |
| CN1C2CCCC1CC(NC(=O)c1nn(C)c3ccccc13)C2 (stereo not drawn) [Granisetron] | – | – | – | -0.067 | 0.526 | 726.756 | – |
| COc1cccc2c1C(=O)c1c(O)c3c(c(O)c1C2=O)C[C@@](O)(C(C)=O)C[C@@H]3O[C@H]1C[C@H](N)[C@H](O)[C@H](C)O1 [Daunorubicin hydrochloride] | – | – | – | 6.093 | -0.357 | 740.439 | – |
| CC(Cc1ccccc1)NCCC(c1ccccc1)c1ccccc1 (stereo not drawn) [Prenylamine lactate] | – | – | – | – | – | – | B-score binding assay (human NTCP [1]; [3]): 0.388; B-score functional assay (human NTCP [2]; [4]): 1.102; Ranking score (human NTCP [2]; [5]): 975.256 |
| CC1(C)O[C@@H]2C[C@H]3[C@@H]4C[C@H](F)C5=CC(=O)C=C[C@]5(C)[C@H]4[C@@H](O)C[C@]3(C)[C@]2(C(=O)CO)O1 [Flunisolide] | – | – | – | 0.284 | 0.152 | 805.548 | – |
| Cn1c(=O)c2c(ncn2CC(=O)O)n(C)c1=O [Acefylline] | – | – | – | – | – | – | B-score binding assay (human NTCP [1]; [3]): 0.607; B-score functional assay (human NTCP [2]; [4]): 0.41; Ranking score (human NTCP [2]; [5]): 910.022 |
| CC(=O)CC(c1ccccc1)c1c(O)c2ccccc2oc1=O (stereo not drawn) [Warfarin] | 0.123 | 391.491 | -1.345 | – | – | – | – |
| CCCCN(CCCC)CCCOC(=O)c1ccc(N)cc1 [Butacaine] | – | – | – | 0.529 | -0.185 | 672.37 | – |
| CS(=O)(=O)O.OC(CCN1CCCCC1)(c1ccccc1)c1ccccc1 [Pridinol methanesulfonate salt] | – | – | – | – | – | – | B-score binding assay (human NTCP [1]; [3]): 0.059; B-score functional assay (human NTCP [2]; [4]): 1.063; Ranking score (human NTCP [2]; [5]): 875.882 |
| CCCC(C)(COC(N)=O)COC(=O)NC(C)C (stereo not drawn) [Carisoprodol] | – | – | – | 3.83 | -0.248 | 768.775 | – |
| CN1CCCC(n2nc(Cc3ccc(Cl)cc3)c3ccccc3c2=O)CC1 (stereo not drawn) [Azelastine HCl] | – | – | – | – | – | – | B-score binding assay (human NTCP [1]; [3]): 0.157; B-score functional assay (human NTCP [2]; [4]): 1.435; Ranking score (human NTCP [2]; [5]): 940.553 |

| SMILES | B-score binding assay (human NTCP [1]; [6]) | Ranking score (human NTCP [2]; [7]) | B-score functional assay (human NTCP [2]; [8]) | B-score binding assay (human NTCP [1]; [9]) | B-score functional assay (human NTCP [2]; [10]) | Ranking score (human NTCP [2]; [11]) | also measured |
| --- | --- | --- | --- | --- | --- | --- | --- |
| CN1CCC(=C2c3ccccc3C=Cc3ccccc32)CC1 [Cyproheptadine hydrochloride] | – | – | – | 0.492 | -0.111 | 690.33 | – |
| C[C@]12CC[C@@H]3c4ccc(O)cc4C[C@@H](CCCCCCCCC[S+]([O-])CCCC(F)(F)C(F)(F)F)[C@H]3[C@@H]1CC[C@@H]2O (stereo partly drawn) [Fulvestrant] | – | – | – | -0.303 | 1.208 | 701.076 | – |
| CC(CCc1ccccc1)NC(C)C(O)c1ccc(O)cc1 (stereo not drawn) [Nylidrin] | -0.92 | 363.793 | -0.121 | – | – | – | – |
| COc1ccc(CN2CCNCC2)c(OC)c1OC [Trimetazidine dihydrochloride] | -1.545 | 350.668 | 0.211 | – | – | – | – |
| COC(=O)Nc1nc2ccc(C(=O)c3ccccc3)cc2[nH]1 [Mebendazole] | -0.531 | 327.443 | -0.824 | – | – | – | – |
| CC(C)NCC(O)c1ccc2ccccc2c1.Cl (stereo not drawn) [Pronethalol hydrochloride] | 0.008 | 409.31 | -0.999 | – | – | – | – |
| C[C@]12Cc3c[nH]nc3C[C@@H]1CC[C@@H]1[C@@H]2CC[C@@]2(C)[C@H]1CC[C@]2(C)O [Stanozolol] | – | – | – | – | – | – | B-score binding assay (human NTCP [1]): -2.248; B-score functional assay (human NTCP [2]): -1.951; Ranking score (human NTCP [2]): 107.121 |
| CC(C)(C)C(=O)OCOC(=O)[C@@H]1N2C(=O)[C@@H](/N=C/N3CCCCCC3)[C@H]2SC1(C)C [Pivmecillinam hydrochloride] | – | – | – | 0.838 | -0.103 | 729.338 | – |
| CCc1c(C)[nH]c2c1C(=O)C(CN1CCOCC1)CC2 (stereo not drawn) [Molindone hydrochloride] | 0.009 | 412.337 | -0.958 | – | – | – | – |
| Nc1cc(-c2ccncc2)c[nH]c1=O [Amrinone] | -0.056 | 350.268 | -1.236 | – | – | – | – |
| Nc1ccn([C@@H]2O[C@H](CO)[C@@H](O)[C@@H]2O)c(=O)n1 [Cytarabine] | – | – | – | – | – | – | B-score binding assay (human NTCP [1]; [3]): 0.655; B-score functional assay (human NTCP [2]; [4]): 0.582; Ranking score (human NTCP [2]; [5]): 944.957 |
| CC(C)CC(=O)N[C@H](C(=O)N[C@H](C(=O)N[C@@H](CC(C)C)[C@@H](O)CC(=O)N[C@@H](C)C(=O)N[C@@H](CC(C)C)[C@@H](O)CC(=O)O)C(C)C)C(C)C [Pepstatin A] (Isovaleryl-VV[Sta]A[Sta]-OH) | – | – | – | -0.237 | 2.688 | 763.991 | – |
| CC(C)(C)NCC(O)c1cc(O)cc(O)c1.CC(C)(C)NCC(O)c1cc(O)cc(O)c1.O=S(=O)(O)O (stereo not drawn) [Terbutaline hemisulfate] | -2.462 | 291.443 | 2.669 | – | – | – | – |
| Oc1c(Cl)cc(Cl)c(Cl)c1Cc1c(O)c(Cl)cc(Cl)c1Cl [Hexachlorophene] | – | – | – | – | – | – | B-score binding assay (human NTCP [1]): 1.48; B-score functional assay (human NTCP [2]): -8.47; Ranking score (human NTCP [2]): 82.4136 |
| CN1C[C@H](C(=O)N[C@]2(C)O[C@@]3(O)[C@@H]4CCCN4C(=O)[C@H](Cc4ccccc4)N3C2=O)C[C@@H]2c3cccc4[nH]cc(c34)C[C@H]21.CN1C[C@H](C(=O)N[C@]2(C)O[C@@]3(O)[C@@H]4CCCN4C(=O)[C@H](Cc4ccccc4)N3C2=O)C[C@@H]2c3cccc4[nH]cc(c34)C[C@H]21.O=C(O)C(O)C(O)C(=O)O [Dihydroergotamine tartrate] | -1.57 | 379.284 | 0.679 | – | – | – | – |
| [H]/N=C(/N)NS(=O)(=O)c1ccc(N)cc1 [Sulfaguanidine] | – | – | – | 2.333 | -0.516 | 669.134 | – |
| N[C@@H](C(=O)N[C@@H]1C(=O)N2C(C(=O)O)=C(Cl)CS[C@H]12)c1ccccc1.O [Cefaclor hydrate] | -0.309 | 381.916 | -0.668 | – | – | – | – |
